Data set [1] deals with hM3Dq (Homo sapiens, UniProt P20309, A239G/Y149C). Particulars: cited from earlier work.
For data set [2] the following is noted: human, in vivo; cited from earlier work.
For data set [3] the following is noted: cited from earlier work.
The subject of data set [4] is human muscarinic acetylcholine receptors mutated to DREADDs. Particulars: cited from earlier work.
For data set [5], the target named is T1, hM4Di (Homo sapiens, UniProt P08173, A203G/Y113C).
T1 sequence (P08173 1-479 Y113C/A203G): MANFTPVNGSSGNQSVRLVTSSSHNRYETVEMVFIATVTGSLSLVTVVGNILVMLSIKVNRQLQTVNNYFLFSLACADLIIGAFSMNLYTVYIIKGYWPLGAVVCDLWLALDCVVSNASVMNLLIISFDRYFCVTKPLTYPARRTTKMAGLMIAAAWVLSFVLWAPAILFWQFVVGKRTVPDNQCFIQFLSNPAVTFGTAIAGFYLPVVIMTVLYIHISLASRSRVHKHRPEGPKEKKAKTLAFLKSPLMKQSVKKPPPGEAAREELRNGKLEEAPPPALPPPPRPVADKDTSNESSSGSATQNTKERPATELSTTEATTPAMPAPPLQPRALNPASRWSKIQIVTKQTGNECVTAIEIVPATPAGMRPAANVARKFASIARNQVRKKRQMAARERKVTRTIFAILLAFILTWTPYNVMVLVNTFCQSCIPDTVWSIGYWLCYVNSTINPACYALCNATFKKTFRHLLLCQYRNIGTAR
In words: Overview of hM4Di/CNO treatment in in vivo models of focal epilepsy.

Data set [6] deals with T1, hM4Di. The data set is classed as in vivo. Details: host or cells: rat (Sprague-Dawley) primary motor cortex neurons transduced in vivo with AAV5, Camk2a promoter.
Data set [7] concerns the target T1, hM4Di. Details: host or cells: rat (Sprague-Dawley) primary motor cortex neurons transduced in vivo with AAV5, Camk2a promoter. Particulars: in vivo.
Data set [8] deals with T1, hM4Di. The data set is classed as in vivo. Also noted: host or cells: rat (Sprague-Dawley) primary motor cortex neurons transduced in vivo with AAV5, Camk2a promoter. Particulars: tetanus toxin model; CNO 1 mg/kg i.p. twice at 2-hour interval, 3.5 hour window, vs vehicle; P=0.028 Wilcoxon.

For orientation: half-life means the time in which the quantity being followed falls by half.

Where two headings read alike, the source gives them in different places.

Sequence of hM3Dq (P20309 whole entry Y149C/A239G): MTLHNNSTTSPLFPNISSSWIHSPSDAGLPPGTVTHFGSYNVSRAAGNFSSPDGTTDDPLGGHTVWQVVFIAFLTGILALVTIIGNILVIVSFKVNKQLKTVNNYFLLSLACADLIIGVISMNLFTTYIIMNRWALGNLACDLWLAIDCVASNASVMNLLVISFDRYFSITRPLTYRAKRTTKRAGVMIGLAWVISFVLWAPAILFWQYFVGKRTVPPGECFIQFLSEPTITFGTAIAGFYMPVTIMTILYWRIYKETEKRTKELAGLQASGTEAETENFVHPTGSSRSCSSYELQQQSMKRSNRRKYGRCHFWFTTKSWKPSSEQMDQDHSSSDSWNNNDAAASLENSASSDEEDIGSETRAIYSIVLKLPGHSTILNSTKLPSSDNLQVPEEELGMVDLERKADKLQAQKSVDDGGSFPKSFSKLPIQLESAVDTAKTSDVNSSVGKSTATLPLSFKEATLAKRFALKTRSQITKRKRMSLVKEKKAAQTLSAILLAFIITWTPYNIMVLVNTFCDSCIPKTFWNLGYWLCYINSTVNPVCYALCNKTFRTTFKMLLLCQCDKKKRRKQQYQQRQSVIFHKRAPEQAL

Take `CN1CCN(C2=Nc3ccccc3Cc3ccccc32)CC1` [perlapine]: in data set [1], the “binding to hM3Dq” value is given as “binds”.

Turning to `C[N+]1([O-])CCN(C2=Nc3cc(Cl)ccc3Nc3ccccc32)CC1` [CNO, clozapine-N-oxide], the half-life in data set [2] was 7 to 8 h. Besides, in data set [3], the “duration of effect on neurons transduced with hM4Di or its excitatory analog” value is recorded as “at least 90 minutes”. Also, the “time to full clearance” value in data set [3] (rat, in vivo) is at most 12 h. Also, the “activation of DREADD receptors” value in data set [4] is given as “readily activated”. In addition, in data set [5] (following a single intraperitoneal injection), the “duration of seizure suppression / CNO present in the brain” value fell in the range of 45 to 60 min. Besides, in data set [5] (hM4Di expression plus systemic CNO), the “tolerability of the treatment” value is “well tolerated”. Besides, the “time to significant reduction in seizure severity after CNO administration” value in data set [6] (picrotoxin (FIG. 2e)) was at most 10 min. Also, the “attenuation of IF activity” value in data set [6] (picrotoxin, IF activity correlated with more severe motor seizures) is given as “especially marked”. In addition, the electrographic discharges result in data set [6] (rats with hM4Di AAV in M1, CNO i.p. immediately after focal picrotoxin, vs vehicle) was “attenuated”. In data set [7], the “electrographic and motor convulsions” value was “substantially reduced”; the “mean 4-14 Hz power” value is given as “significant decrease”; the “mean frequency of negative deflections in the EEG” value was “significant decrease”; the “number of IF runs that correlate with severe motor seizures” value is “significant decrease”. Also, in data set [7], the pilocarpine-triggered seizures result was “profoundly suppressed” and the “time to significant reduction in seizure severity after CNO administration” value was at most 10 min. In addition, in data set [8], the coastline result is reported as “significantly attenuated”, the “frequency of epileptiform bursts” value was “significantly attenuated” and the high-frequency power entry is “significantly attenuated”.

Values taken from patent US10525103B2, “Combined use of a vector encoding a modified receptor and its exogenous agonist in the treatment of seizures” (UCL BUSINESS LTD, priority 2014, dated 2020).
